Reference: article PMC5701912, “Arylacetamide Deacetylase Is Involved in Vicagrel Bioactivation in Humans” (Frontiers in Pharmacology, 2017)

What was measured:
[1] = Hydrolase activity (kinetics and marker substrates) in human intestine microsomes
Excerpt: (§1) (1) v = Vmax × S/(Km + S)

[2] = design: method as in Liu et al., 2017; conditions: healthy subjects, oral vicagrel tablets, during the sampling period; ref Liu et al., 2017; cited from earlier work
CES2 [3] = experiment: Contribution of CES2 to vicagrel hydrolase activity in HIM (RAF method); format: in vitro ADME, human
Excerpt: (§2) The RAF method was applied as the ratio of activity values to evaluate the contribution of CES2 and AADAC to vicagrel hydrolysis in HIM. […] The following formulas were used to predict the vicagrel hydrolase activities of CES2 (VCES2, HIM), and AADAC (VAADAC, HIM) in HIM:
(2) VCES2, HIM = Vrec−CES2 × RAFCES2, HIM
(§3) V rec-CES2 and V rec-AADAC are the vicagrel hydrolase activities of recombinant CES2 and AADAC, respectively. The following equations were used to calculate the contributions of CES2 and AADAC to vicagrel hydrolase activities in HIM:
(4) CES2 in HIM(%) = (VCES2, HIM/VHIM) × 100
(§4) where the V HIM value is the observed vicagrel hydrolase activities in HIM.

CES1 = biological target: T1, CES1 (Homo sapiens, UniProt P23141); experiment: Hydrolase activity by recombinant human CES1; format: in vitro ADME
T1 construct: purchased Cypex Ltd. (Scotland, United Kingdom)
T1 sequence (P23141 18-567): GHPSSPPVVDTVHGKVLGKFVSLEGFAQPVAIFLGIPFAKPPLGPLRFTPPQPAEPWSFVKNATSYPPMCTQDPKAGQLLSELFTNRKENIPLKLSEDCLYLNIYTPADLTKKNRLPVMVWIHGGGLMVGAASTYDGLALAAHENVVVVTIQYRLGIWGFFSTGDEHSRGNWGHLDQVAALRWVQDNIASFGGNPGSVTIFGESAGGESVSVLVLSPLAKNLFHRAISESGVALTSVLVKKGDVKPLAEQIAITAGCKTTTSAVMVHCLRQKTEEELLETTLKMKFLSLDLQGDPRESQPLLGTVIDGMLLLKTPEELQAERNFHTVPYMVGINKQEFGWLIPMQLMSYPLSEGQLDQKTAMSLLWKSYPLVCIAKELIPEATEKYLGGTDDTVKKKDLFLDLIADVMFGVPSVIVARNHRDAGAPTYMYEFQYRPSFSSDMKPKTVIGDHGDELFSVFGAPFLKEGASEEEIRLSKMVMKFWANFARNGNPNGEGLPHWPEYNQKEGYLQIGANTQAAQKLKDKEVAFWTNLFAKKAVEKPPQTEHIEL
Excerpt: as §1

AADAC [4] = experiment: Contribution of AADAC to vicagrel hydrolase activity in HIM (RAF method); format: in vitro ADME, human; conditions: phenacetin as probe
Excerpt: as §2
(3) VAADAC, HIM = Vrec−AADAC × […], HIM
as §3
(5) AADAC in HIM(%) = (VAADAC, HIM/VHIM) × 100
as §4

[5] = Hydrolase activity in dog intestine microsomes; format: in vitro ADME
Excerpt: as §1

AADAC [6] = biological target: T2, AADAC (Homo sapiens, UniProt P22760); experiment: Hydrolase activity by recombinant human AADAC
T2 sequence (P22760 1-399): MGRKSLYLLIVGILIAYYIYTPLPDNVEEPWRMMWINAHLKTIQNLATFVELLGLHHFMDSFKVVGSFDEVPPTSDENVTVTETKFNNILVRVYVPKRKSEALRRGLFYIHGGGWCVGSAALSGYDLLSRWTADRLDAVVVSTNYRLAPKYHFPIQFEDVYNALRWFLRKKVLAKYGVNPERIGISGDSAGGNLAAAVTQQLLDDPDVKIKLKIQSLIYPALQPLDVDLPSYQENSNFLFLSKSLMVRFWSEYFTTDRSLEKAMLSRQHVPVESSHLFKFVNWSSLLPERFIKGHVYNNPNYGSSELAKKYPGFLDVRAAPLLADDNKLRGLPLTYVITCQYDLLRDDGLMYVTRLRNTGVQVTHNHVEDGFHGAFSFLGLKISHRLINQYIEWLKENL

[7] = design: method as in Liu et al., 2017; conditions: healthy subjects; oral 5 mg vicagrel and 75 mg clopidogrel; ref Liu et al., 2017; cited from earlier work
CES2 [8] = biological target: T3, CES2 (Homo sapiens, UniProt O00748); experiment: Hydrolase activity by recombinant human CES2; format: in vitro ADME
T3 construct: purchased Cypex Ltd. (Scotland, United Kingdom)
T3 sequence (O00748 27-559): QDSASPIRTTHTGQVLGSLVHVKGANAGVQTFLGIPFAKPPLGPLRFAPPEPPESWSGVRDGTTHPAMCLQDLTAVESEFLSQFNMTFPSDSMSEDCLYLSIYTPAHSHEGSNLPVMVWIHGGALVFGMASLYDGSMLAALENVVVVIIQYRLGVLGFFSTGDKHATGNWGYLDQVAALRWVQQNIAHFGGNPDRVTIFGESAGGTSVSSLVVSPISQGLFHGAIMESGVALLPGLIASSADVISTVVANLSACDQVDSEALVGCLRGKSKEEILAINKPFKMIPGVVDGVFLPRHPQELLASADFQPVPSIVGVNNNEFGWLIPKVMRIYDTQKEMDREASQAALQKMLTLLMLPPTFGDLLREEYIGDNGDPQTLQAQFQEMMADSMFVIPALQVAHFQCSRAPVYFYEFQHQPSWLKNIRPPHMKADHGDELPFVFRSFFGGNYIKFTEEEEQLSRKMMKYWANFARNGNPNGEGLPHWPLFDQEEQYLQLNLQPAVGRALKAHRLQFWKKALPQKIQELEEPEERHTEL
Excerpt: as §1

[9] = Hydrolase activity (kinetics and marker substrates) in human liver microsomes; format: in vitro ADME
Excerpt: as §1

[10] = design: method as in Qiu et al., 2013; conditions: rats and beagle dogs, ref Qiu et al., 2013, cited from earlier work

In the case of `COC(=O)[C@H](c1ccccc1Cl)N1CCc2sc(OC(C)=O)cc2C1` [vicagrel, Vicagrel], the “Vmax of vicagrel hydrolysis” value ([1]; HIM 0.01 mg/mL, 1 min) is reported as 347.2 ± 6.4 nmol/min/mg protein, the “Hydrolase activity (vicagrel), VHIM” value ([1]; human, 1 min, pH 7.4) is reported as 48.0 nmol/min/mg and the microsomal CLint ([1]; human, microsomes, pH 7.4) is reported as 53100 ± 1040 µL/min/mg. For the same compound, the Km at 1 min ([1]; human, pH 7.4) was 6.54 ± 0.45 µM, the “Parent drug in human plasma” value [2] was “undetectable” and the “Contribution of CES2 to vicagrel hydrolysis” value (CES2 [3]; HIM, RAF method, procaine as probe) was 44.2%. For the same compound, the “Sum of the contributions of CES2 and AADAC to vicagrel hydrolysis” value (CES2 [3]; HIM, RAF method, CES2 plus AADAC) was 97.3%, the “Calculated vicagrel hydrolase activity of CES2 in HIM (VCES2, HIM)” value (CES2 [3]; Vrec-CES2 × RAFCES2, HIM) was 21.2 nmol/min/mg protein and the microsomal CLint (CES1; human, recombinant human CES1, pH 7.4, recombinant CES1, calculated as Vmax/Km, read-out: CLint of vicagrel hydrolysis) was 29000 ± 2300 µL/min/mg. For the same compound, the “Hydrolase activity (vicagrel)” value (CES1; recombinant CES1) was 17.3 nmol/min/mg, the “Vmax of vicagrel hydrolysis” value (CES1; recombinant CES1 0.01 mg/mL, 2 min) was 264.0 ± 16.6 nmol/min/mg protein and the “Contribution of AADAC to vicagrel hydrolysis” value (AADAC [4]) was “approximately 53%”. For the same compound, the “Contribution of AADAC to vicagrel hydrolysis” value (AADAC [4]; listed as Vicagrel) was 53.1%, the “Vmax of vicagrel hydrolysis” value ([5]; DIM 0.01 mg/mL, 1 min) was 171.4 ± 3.9 nmol/min/mg protein and the Km at 1 min ([5]; dog, dog intestine microsomes, pH 7.4, DIM 0.01 mg/mL, 1 min, read-out: Km of vicagrel hydrolysis) was 8.37 ± 0.69 µM. For the same compound, the microsomal CLint ([5]; dog, dog intestine microsomes, pH 7.4, DIM, calculated as Vmax/Km, read-out: CLint of vicagrel hydrolysis) was 20500 ± 1300 µL/min/mg, the microsomal CLint (AADAC [6]; human, recombinant human AADAC, pH 7.4) was 39000 ± 3100 µL/min/mg and the “Hydrolase activity (vicagrel), Vrec-AADAC” value (AADAC [6]; recombinant AADAC) was 21.8 nmol/min/mg. The “Vmax of vicagrel hydrolysis” value (AADAC [6]; recombinant AADAC 0.015 mg/mL, 2 min) was 381.7 ± 24.7 nmol/min/mg protein, the “Antiplatelet effects versus clopidogrel” value [7] was “Comparable antiplatelet effects” and the microsomal CLint (CES2 [8]; human, recombinant human CES2, pH 7.4, recombinant CES2, calculated as Vmax/Km, read-out: CLint of vicagrel hydrolysis) was 46100 ± 3100 µL/min/mg. For the same compound, the “Hydrolase activity (vicagrel), Vrec-CES2” value (CES2 [8]; recombinant CES2) was 26.1 nmol/min/mg, the “Vmax of vicagrel hydrolysis” value (CES2 [8]; recombinant CES2 0.01 mg/mL, 1 min) was 331.2 ± 14.9 nmol/min/mg protein and the “Hydrolase activity (vicagrel)” value ([9]; HLM) was 96.5 nmol/min/mg. For the same compound, the “Vmax of vicagrel hydrolysis” value ([9]; HLM 0.01 mg/mL, 1 min) was 917.6 ± 23.5 nmol/min/mg protein, the Km at 1 min ([9]; human, human liver microsomes, pH 7.4, HLM 0.01 mg/mL, 1 min, formation of 2-oxo-clopidogrel, read-out: Km of vicagrel hydrolysis) was 7.18 ± 0.66 µM and the “Production of H4 from vicagrel relative to clopidogrel” value ([10]; oral, same dose) was “four to six times higher”. The “Production of 2-oxo-clopidogrel from vicagrel relative to clopidogrel” value [10] was “about six times”.
